Each compound was assayed against T1, b-Raf (Homo sapiens, UniProt P15056, V600E) (assay: Raf cellular assay (phospho-Mek1/2 ELISA in A2058 cells)). Settings: Table 3; human melanoma A2058 cells (b-Raf mutation), Mek1/2 Ser217/221 phosphorylation, 1 hour incubation; read-out: pMEK IC50.
T1 construct: endogenous in cells; host or cells: A2058 human melanoma cells
Format: cell-based
Method: Compounds of the present invention were evaluated for potency against b-Raf using a cellular assay as follows. The activity of Raf kinases in cells is determined by measuring the level of phosphorylation of Mek1/2 at serine 217/221, the site phosphorylated by Raf kinases in vivo. Mek1/2 Ser phosphorylation is measured using anti-phospho-Mek1/2 antibodies (Cell Signaling #9121) in an ELISA format.
Healthy growing human melanoma A2058 cells (harboring a b-Raf mutation) are used for the assay. A2058 cells are grown in 10% FBS DMEM medium. When the cells are near 85%+confluence, the cells are rinsed with PBS once and trypsinized with trypsin/EDTA for 3 minutes. The cells are resuspended in 10% FBS DMEM and are centrifuged down at 1000 rpm for 5 minutes. The cells are resuspended in 10% FBS DMEM and counted on a cell counter. The cells are seeded at 50,000 cells/well in a volume of 100 μL/well in 10% FBS DMEM in a 96 well flat-bottom plate. The negative control wells receive only 100 μL of 10% FBS DMEM medium without cells. The plate is incubated overnight in a cell culture incubator with 5% CO2 at 37° C.
On day 2, testing compounds are prepared in 10% FBS DMEM medium and serially diluted at 1:3 for 11 test concentrations. Each concentration of the compounds is tested in duplicate. The compound solutions are added at 25 μL/well to the corresponding wells in the cell plate, and 25 μL/well of the vehicle (0.5% DMSO in 10% FBS DMEM) is added to the negative control wells (no cells) and the positive control wells (cells without compounds). The plate is incubated for 1 hour in a cell culture incubator with 5% CO2 at 37° C. After 1 hour of incubation, the medium is removed, 100 μL/well of cell lysis buffer is added into the cell plate, and the plate is shaken for 15 minutes at room temperature. After 15 minutes, the cell lysates are transferred to an ELISA plate (pre-coated with anti-Mek1 anti-body, Cell Signaling #2352), and the plate is incubated with gentle shaking for 2 hours at room temperature. After 2 hours, the contents of the wells are aspirated and the wells are washed 4 times with wash buffer. 100 μL of phospho-Mek1/2 detection antibody (Cell Signaling #9121) is added into each well and the plate is incubated with gentle shaking for 1 hour at room temperature. After 1 hour, the wells are aspirated and washed 4 times with wash buffer. 100 μL of anti-rabbit IgG HRP-linked antibody (Cell Signaling #7074) is added to each well, and the plate is incubated with gentle shaking for 1 hour at room temperature. After 1 hour, the contents of the wells are aspirated and the wells are washed 4 times with wash buffer. 100 μL of TMB substrate solution (Sigma #T0440) is added into each well, and the plate is incubated with gentle shaking at room temperature for 10 to 20 minutes. After color development, 100 μL of stop solution (1N hydrochloric acid) is added to each well to terminate color development. The plate is read at 450 nm on an ELISA plate reader.

T1 sequence (P15056 whole entry V600E): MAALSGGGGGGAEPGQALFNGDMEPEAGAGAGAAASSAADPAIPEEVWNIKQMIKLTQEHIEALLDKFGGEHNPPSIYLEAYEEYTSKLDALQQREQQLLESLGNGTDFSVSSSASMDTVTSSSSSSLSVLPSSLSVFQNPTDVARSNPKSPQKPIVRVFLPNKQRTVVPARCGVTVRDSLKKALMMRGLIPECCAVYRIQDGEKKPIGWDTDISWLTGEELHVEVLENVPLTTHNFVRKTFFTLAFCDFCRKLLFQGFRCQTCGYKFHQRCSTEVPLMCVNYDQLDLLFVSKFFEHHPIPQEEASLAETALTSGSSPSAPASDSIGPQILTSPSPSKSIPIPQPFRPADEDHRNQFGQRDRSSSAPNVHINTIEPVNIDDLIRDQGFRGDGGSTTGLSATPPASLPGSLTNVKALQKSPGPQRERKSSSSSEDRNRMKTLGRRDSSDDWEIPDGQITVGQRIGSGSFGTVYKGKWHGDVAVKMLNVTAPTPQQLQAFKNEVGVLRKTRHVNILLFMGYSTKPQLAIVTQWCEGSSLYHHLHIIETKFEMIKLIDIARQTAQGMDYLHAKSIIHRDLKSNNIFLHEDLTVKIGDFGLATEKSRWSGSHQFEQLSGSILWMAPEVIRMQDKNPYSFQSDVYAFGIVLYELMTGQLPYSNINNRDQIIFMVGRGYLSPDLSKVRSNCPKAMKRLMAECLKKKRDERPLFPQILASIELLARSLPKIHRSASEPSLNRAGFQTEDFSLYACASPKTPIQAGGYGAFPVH

| Compound | IC50 [nM] |
| --- | --- |
| COc1cc(-c2nn(C(F)F)cc2-c2ccnc(NC[C@H](C)O)n2)cnc1N [Example B-41, (2S)-1-({4-[3-(6-amino-5-methoxypyridin-3-yl)-1-(difluoromethyl)-1H-pyrazol-4-yl]pyrimidin-2-yl}amino)propan-2-ol] | 78.5 |
| CC(C)n1cc(-c2ccnc(NC[C@H](C)O)n2)c(-c2cnc(N)nc2)n1 [Example B-42, (2S)-1-({4-[3-(2-aminopyrimidin-5-yl)-1-isopropyl-1H-pyrazol-4-yl]pyrimidin-2-yl}amino)propan-2-ol] | 5650 |
| COc1cncc(-c2nn(CC(F)F)cc2-c2ccnc(NCCC#N)n2)c1 [Example B-46, 3-({4-[1-(2,2-difluoroethyl)-3-(5-methoxypyridin-3-yl)-1H-pyrazol-4-yl]pyrimidin-2-yl}amino)propanenitrile] | 16 |
| CC(C)n1cc(-c2ccnc(NCCC#N)n2)c(-c2cnc3[nH]ccc3c2)n1 [Example B-50, 3-({4-[1-isopropyl-3-(1H-pyrrolo[2,3-b]pyridin-5-yl)-1H-pyrazol-4-yl]pyrimidin-2-yl}amino)-propanenitrile] | 7.29 |
| CC(=O)c1cc(-c2nn(C(C)C)cc2-c2ccnc(NCCC#N)n2)cnc1N [Example B-52, 3-({4-[3-(5-acetyl-6-aminopyridin-3-yl)-1-isopropyl-1H-pyrazol-4-yl]pyrimidin-2-yl}amino)propanenitrile] | 9.3 |
| CC(C)n1cc(-c2ccnc(NCCC#N)n2)c(-c2cccnc2)n1 [Example B-53, 3-{[4-(1-isopropyl-3-pyridin-3-yl-1H-pyrazol-4-yl)pyrimidin-2-yl]amino}-propanenitrile] | 1320 |
| C[C@H](CO)n1cc(-c2ccnc(N)n2)c(-c2cnc3[nH]cc(Cl)c3c2)n1 [Example B-55, (2R)-2-[4-(2-aminopyrimidin-4-yl)-3-(3-chloro-1H-pyrrolo[2,3-b]pyridin-5-yl)-1H-pyrazol-1-yl]propan-1-ol] | 63.6 |
| COc1cc(-c2nn(C3CC3)cc2-c2ccnc(N)n2)cnc1N [Example B-56, 4-[3-(6-amino-5-methoxypyridin-3-yl)-1-cyclopropyl-1H-pyrazol-4-yl]pyrimidin-2-amine] | 83.3 |
| COc1cc(-c2nn(C3CC3)cc2-c2ccnc(NCCC#N)n2)cnc1N [Example B-57, 3-({4-[3-(6-amino-5-methoxypyridin-3-yl)-1-cyclopropyl-1H-pyrazol-4-yl]pyrimidin-2-yl}amino)-propanenitrile] | 2.95 |
| COc1cc(-c2nn(C3CC3)cc2-c2ccnc(NCC(F)F)n2)cnc1N [Example B-59, 4-[3-(6-amino-5-methoxypyridin-3-yl)-1-cyclopropyl-1H-pyrazol-4-yl]-N-(2,2-difluoroethyl)pyrimidin-2-amine] | 6.86 |
| Clc1c[nH]c2ncc(-c3nn(C4CCNCC4)cc3-c3ccncn3)cc12 [Example B-64, 3-chloro-5-(1-piperidin-4-yl-4-pyrimidin-4-yl-1H-pyrazol-3-yl)-1H-pyrrolo[2,3-b]pyridine] | 61.7 |
| CC(=O)N1CCC(n2cc(-c3ccnc(NCC(F)F)n3)c(-c3cnc4[nH]cc(Cl)c4c3)n2)CC1 [Example B-67, 4-[1-(1-acetylpiperidin-4-yl)-3-(3-chloro-1H-pyrrolo[2,3-b]pyridin-5-yl)-1H-pyrazol-4-yl]-N-(2,2-difluoroethyl)-pyrimidin-2-amine] | 9.2 |
| COc1cc(-c2n[nH]cc2-c2ccnc(NCC(F)F)n2)cnc1N [Example B-68, 4-[3-(6-amino-5-methoxypyridin-3-yl)-1H-pyrazol-4-yl]-N-(2,2-difluoroethyl)-pyrimidin-2-amine] | 25.6 |

Continued, values first:

| IC50 [nM] | Compound |
| --- | --- |
| 44.1 | Nc1nccc(-c2cn(C(F)F)nc2-c2cnc3[nH]cc(Cl)c3c2)n1 [Example B-43, 4-[3-(3-chloro-1H-pyrrolo[2,3-b]pyridin-5-yl)-1-(difluoromethyl)-1H-pyrazol-4-yl]pyrimidin-2-amine] |
| 1.37 | Cc1c[nH]c2ncc(-c3nn(C(F)F)cc3-c3ccnc(NCCC#N)n3)cc12 [Example B-44, 3-({4-[1-(difluoromethyl)-3-(3-methyl-1H-pyrrolo[2,3-b]pyridin-5-yl)-1H-pyrazol-4-yl]pyrimidin-2-yl}amino)-propanenitrile] |
| 319 | CC(C)n1cc(-c2ccnc(NC[C@H](C)O)n2)c(-c2cnc(N)c(O)c2)n1 [Example B-45, 2-amino-5-[4-(2-{[(2S)-2-hydroxypropyl]-amino}pyrimidin-4-yl)-1-isopropyl-1H-pyrazol-3-yl]pyridin-3-ol] |
| 86.2 | Cc1cc(-c2nn(C(C)(C)CO)cc2-c2ccnc(NCCC#N)n2)cnc1N [Example B-47, 3-({4-[3-(6-amino-5-methylpyridin-3-yl)-1-(2-hydroxy-1,1-dimethylethyl)-1H-pyrazol-4-yl]pyrimidin-2-yl}amino)-propanenitrile] |
| 30.3 | CC(C)(CO)n1cc(-c2ccnc(NCC(F)F)n2)c(-c2cnc3[nH]ccc3c2)n1 [Example B-48, 2-[4-{2-[(2,2-difluoroethyl)amino]pyrimidin-4-yl}-3-(1H-pyrrolo[2,3-b]pyridin-5-yl)-1H-pyrazol-1-yl]-2-methylpropan-1-ol] |
| 22.4 | COc1cncc(-c2nn(C(C)(C)CO)cc2-c2ccnc(NCCC#N)n2)c1 [Example B-49, 3-(4-(1-(1-hydroxy-2-methylpropan-2-yl)-3-(5-methoxypyridin-3-yl)-1H-pyrazol-4-yl)pyrimidin-2-ylamino)propanenitrile] |
| 11 | Cc1n[nH]c2ncc(-c3nn(C(C)C)cc3-c3ccnc(NCCC#N)n3)cc12 [Example B-51, 3-({4-[1-isopropyl-3-(3-methyl-1H-pyrazolo[3,4-b]pyridin-5-yl)-1H-pyrazol-4-yl]pyrimidin-2-yl}amino)propanenitrile] |
| 1.24 | COc1cc(-c2nn(C(C)(C)C)cc2-c2ccnc(NCC(F)F)n2)cnc1N [Example B-54, 4-[3-(6-amino-5-methoxypyridin-3-yl)-1-tert-butyl-1H-pyrazol-4-yl]-N-(2,2-difluoroethyl)pyrimidin-2-amine] |
| 9.86 | Cc1c[nH]c2ncc(-c3nn(C(C)(C)CO)cc3-c3ccnc(N)n3)cc12 [Example B-58, 2-[4-(2-aminopyrimidin-4-yl)-3-(3-methyl-1H-pyrrolo[2,3-b]pyridin-5-yl)-1H-pyrazol-1-yl]-2-methylpropan-1-ol] |
| 44 | CC(C)n1cc(-c2ccnc(N)n2)c(-c2cnc3[nH]cc(Cl)c3c2)n1 [Example B-60, 4-[3-(3-chloro-1H-pyrrolo[2,3-b]pyridin-5-yl)-1-isopropyl-1H-pyrazol-4-yl]pyrimidin-2-amine] |
| 67.3 | CCn1cc(-c2ccnc(NC[C@H](C)O)n2)c(-c2cnc3[nH]cc(Cl)c3c2)n1 [Example B-61, (2S)-1-({4-[3-(3-chloro-1H-pyrrolo[2,3-b]pyridin-5-yl)-1-ethyl-1H-pyrazol-4-yl]pyrimidin-2-yl}amino)propan-2-ol] |
| 48.1 | Cc1c[nH]c2ncc(-c3nn(C(C)C)cc3-c3ccnc(N)n3)cc12 [Example B-62, 4-[1-isopropyl-3-(3-methyl-1H-pyrrolo[2,3-b]pyridin-5-yl)-1H-pyrazol-4-yl]pyrimidin-2-amine] |
| 43.7 | Nc1nccc(-c2cn(C3CCNCC3)nc2-c2cnc3[nH]cc(Cl)c3c2)n1 [Example B-63, 4-[3-(3-chloro-1H-pyrrolo[2,3-b]pyridin-5-yl)-1-piperidin-4-yl-1H-pyrazol-4-yl]pyrimidin-2-amine] |
| 9.04 | CC(C)(C)n1cc(-c2ccnc(N)n2)c(-c2cnc3[nH]cc(Cl)c3c2)n1 [Example B-65, 4-[1-tert-butyl-3-(3-chloro-1H-pyrrolo[2,3-b]pyridin-5-yl)-1H-pyrazol-4-yl]pyrimidin-2-amine] |
| 2.87 | Cc1c[nH]c2ncc(-c3nn(C(C)(C)C)cc3-c3ccnc(NC[C@H](C)O)n3)cc12 [Example B-66, (2S)-1-({4-[1-tert-butyl-3-(3-methyl-1H-pyrrolo[2,3-b]pyridin-5-yl)-1H-pyrazol-4-yl]pyrimidin-2-yl}amino)propan-2-ol] |

Reference: patent publication US7772246B2 (Pfizer Inc., priority 2007, dated 2010)
